{
  "source": "patent US20250084039A1",
  "about": "“4-SUBSTITUTED AMINOISOQUINOLINE DERIVATIVES” (Purdue Research Foundation, priority 2016, published 2025)",
  "key": {"K562": {"system": "K562", "assay": "IC50 proliferation assay (Alamar Blue, 72 h)", "format": "cell-based", "conditions": "Homo sapiens"}, "MV4-11": {"system": "MV4-11", "assay": "IC50 proliferation assay (Alamar Blue, 72 h)", "format": "cell-based", "conditions": "Homo sapiens, MV4-11, 72 h; read-out: IC50 (proliferation inhibition) Cell line - MV4-11", "procedure,_shortened": "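Cells seeded ~18 h before treatment with semi-serial compound dilutions made in DMSO then growth medium. After 72 h exposure, Alamar Blue added and read following 4 h further at 37 °C; IC50 for proliferation inhibition.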"}, "ALK": {"target": "ALK (Homo sapiens (Human), UniProt Q9UM73)", "assay": "Reaction Biology HotSpot kinase assay", "format": "biochemical", "conditions": "500 nM compound; read-out: Percentage kinase inhibition ALK", "procedure,_shortened": "(§1)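 HotSpot 33P transfer format. Enzyme, substrate and 500 nM test compound sit together for 20 min, then labelled and unlabelled ATP totalling 100 μM are added and phosphorylation proceeds for 2 h at room temperature. Products are captured on P81 cellulose paper, and activity is expressed relative to DMSO.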"}, "PKCa": {"target": "PKCa (Homo sapiens (Human), UniProt P17252)", "assay": "Reaction Biology HotSpot kinase assay", "format": "biochemical", "conditions": "500 nM compound; read-out: Percentage kinase inhibition PKCa", "procedure,_shortened": "as §1"}, "YES/YES1": {"target": "YES/YES1 (Homo sapiens (Human), UniProt P07947)", "assay": "Reaction Biology HotSpot kinase assay", "format": "biochemical", "conditions": "500 nM compound; read-out: Percentage kinase inhibition YES/YES1", "procedure,_shortened": "as §1"}, "FLT4/VEGFR3": {"target": "FLT4/VEGFR3 (Homo sapiens (Human), UniProt P35916)", "assay": "Reaction Biology HotSpot kinase assay", "format": "biochemical", "conditions": "500 nM compound; read-out: Percentage kinase inhibition FLT4/VEGFR3", "procedure,_shortened": "as §1"}, "FLT1/VEGFR1": {"target": "FLT1/VEGFR1 (Homo sapiens (Human), UniProt P17948)", "assay": "Reaction Biology HotSpot kinase assay", "format": "biochemical", "conditions": "500 nM compound; read-out: Percentage kinase inhibition FLT1/VEGFR1", "procedure,_shortened": "as §1"}, "BTK": {"target": "BTK (Homo sapiens (Human), UniProt Q06187)", "sequence (Q06187 whole entry)": "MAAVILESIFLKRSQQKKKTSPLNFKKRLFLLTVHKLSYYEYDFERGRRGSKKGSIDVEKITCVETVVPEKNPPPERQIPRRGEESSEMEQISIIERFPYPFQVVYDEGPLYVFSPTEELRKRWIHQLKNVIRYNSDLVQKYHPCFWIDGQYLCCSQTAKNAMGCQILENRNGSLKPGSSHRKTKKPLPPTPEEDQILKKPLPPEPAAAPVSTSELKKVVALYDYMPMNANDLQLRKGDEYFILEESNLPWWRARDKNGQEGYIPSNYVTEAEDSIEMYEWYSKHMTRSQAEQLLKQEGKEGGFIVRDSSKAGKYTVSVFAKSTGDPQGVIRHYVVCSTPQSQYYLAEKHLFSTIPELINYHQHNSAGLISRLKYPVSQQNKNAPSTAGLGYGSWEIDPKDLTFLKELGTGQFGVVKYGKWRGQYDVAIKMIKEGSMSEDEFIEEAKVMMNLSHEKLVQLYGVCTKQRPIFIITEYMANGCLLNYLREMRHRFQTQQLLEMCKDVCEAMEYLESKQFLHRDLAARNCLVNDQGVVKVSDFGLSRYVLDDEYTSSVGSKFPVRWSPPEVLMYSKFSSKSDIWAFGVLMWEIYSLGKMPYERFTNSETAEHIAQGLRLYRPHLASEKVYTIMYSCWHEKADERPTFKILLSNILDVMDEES", "assay": "Reaction Biology HotSpot kinase assay", "format": "biochemical", "conditions": "500 nM compound; read-out: Percentage kinase inhibition BTK", "procedure,_shortened": "as §1"}, "PDGFRa": {"target": "PDGFRa (Homo sapiens (Human), UniProt P16234)", "assay": "Reaction Biology HotSpot kinase assay", "format": "biochemical", "conditions": "500 nM compound; read-out: Percentage kinase inhibition PDGFRa", "procedure,_shortened": "as §1"}, "ERBB2/HER2": {"target": "ERBB2/HER2 (Homo sapiens (Human), UniProt P04626)", "assay": "Reaction Biology HotSpot kinase assay", "format": "biochemical", "conditions": "500 nM compound; read-out: Percentage kinase inhibition ERBB2/HER2", "procedure,_shortened": "as §1"}, "FGFR1": {"target": "FGFR1 (Homo sapiens (Human), UniProt P11362)", "assay": "Reaction Biology HotSpot kinase assay", "format": "biochemical", "conditions": "500 nM compound; read-out: Percentage kinase inhibition FGFR1", "procedure,_shortened": "(§2)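 Each compound was tested at 500 nM, with 33P incorporation from ATP (100 μM final, including [γ-33P]ATP) measured by P81 paper capture after a 2 h room-temperature reaction.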"}, "EGFR": {"target": "EGFR (Homo sapiens (Human), UniProt P00533)", "assay": "Reaction Biology HotSpot kinase assay", "format": "biochemical", "conditions": "500 nM compound; read-out: Percentage kinase inhibition EGFR", "procedure,_shortened": "as §1"}, "AKT1": {"target": "AKT1 (Homo sapiens (Human), UniProt P31749)", "sequence (P31749 whole entry)": "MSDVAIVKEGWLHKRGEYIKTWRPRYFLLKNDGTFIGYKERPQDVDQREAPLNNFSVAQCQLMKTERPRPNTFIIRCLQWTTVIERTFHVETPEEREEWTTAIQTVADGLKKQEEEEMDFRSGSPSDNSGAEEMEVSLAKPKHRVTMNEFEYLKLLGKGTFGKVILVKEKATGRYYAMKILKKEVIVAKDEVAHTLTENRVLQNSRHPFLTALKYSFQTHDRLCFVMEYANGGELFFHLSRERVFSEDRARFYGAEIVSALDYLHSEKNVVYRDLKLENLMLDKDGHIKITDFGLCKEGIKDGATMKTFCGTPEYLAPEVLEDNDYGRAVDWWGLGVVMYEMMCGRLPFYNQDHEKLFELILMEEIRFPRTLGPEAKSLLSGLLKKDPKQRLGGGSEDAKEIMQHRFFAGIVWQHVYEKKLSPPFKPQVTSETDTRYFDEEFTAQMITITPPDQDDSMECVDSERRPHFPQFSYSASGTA", "assay": "Reaction Biology HotSpot kinase assay", "format": "biochemical", "conditions": "500 nM compound; read-out: Percentage kinase inhibition AKT1", "procedure,_shortened": "as §2"}, "c-Met": {"target": "c-Met (Homo sapiens (Human), UniProt P08581)", "assay": "Reaction Biology HotSpot kinase assay", "format": "biochemical", "conditions": "500 nM compound; read-out: Percentage kinase inhibition c-Met", "procedure,_shortened": "as §1"}, "FLT3": {"target": "FLT3 (Homo sapiens (Human), UniProt P36888)", "sequence (P36888 27-993)": "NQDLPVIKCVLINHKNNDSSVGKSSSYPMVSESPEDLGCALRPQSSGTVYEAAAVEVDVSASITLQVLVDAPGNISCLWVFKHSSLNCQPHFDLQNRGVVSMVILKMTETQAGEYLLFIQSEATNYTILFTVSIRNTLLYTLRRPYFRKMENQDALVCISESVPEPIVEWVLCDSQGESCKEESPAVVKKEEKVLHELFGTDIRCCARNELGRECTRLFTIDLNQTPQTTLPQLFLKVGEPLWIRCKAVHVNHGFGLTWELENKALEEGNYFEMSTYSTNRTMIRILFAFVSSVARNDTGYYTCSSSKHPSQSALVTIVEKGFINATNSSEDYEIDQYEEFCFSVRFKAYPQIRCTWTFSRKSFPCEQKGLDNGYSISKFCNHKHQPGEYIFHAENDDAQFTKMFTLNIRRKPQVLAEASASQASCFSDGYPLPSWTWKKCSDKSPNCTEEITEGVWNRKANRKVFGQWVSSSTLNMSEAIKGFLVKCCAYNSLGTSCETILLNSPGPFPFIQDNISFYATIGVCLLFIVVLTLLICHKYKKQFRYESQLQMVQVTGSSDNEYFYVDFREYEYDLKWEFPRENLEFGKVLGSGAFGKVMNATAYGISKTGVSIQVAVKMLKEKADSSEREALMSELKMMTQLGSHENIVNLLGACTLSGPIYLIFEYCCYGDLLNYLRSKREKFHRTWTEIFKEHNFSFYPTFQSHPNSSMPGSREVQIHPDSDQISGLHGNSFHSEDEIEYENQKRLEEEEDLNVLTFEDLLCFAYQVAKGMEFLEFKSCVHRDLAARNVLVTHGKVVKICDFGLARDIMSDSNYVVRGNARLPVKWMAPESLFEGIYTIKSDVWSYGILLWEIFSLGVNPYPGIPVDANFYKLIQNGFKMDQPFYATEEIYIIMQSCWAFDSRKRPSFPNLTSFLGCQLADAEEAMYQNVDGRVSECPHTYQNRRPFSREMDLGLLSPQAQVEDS", "assay": "Reaction Biology HotSpot kinase assay", "format": "biochemical", "procedure,_shortened": "as §2"}, "FGR": {"target": "FGR (Homo sapiens (Human), UniProt P09769)", "sequence (P09769 whole entry)": "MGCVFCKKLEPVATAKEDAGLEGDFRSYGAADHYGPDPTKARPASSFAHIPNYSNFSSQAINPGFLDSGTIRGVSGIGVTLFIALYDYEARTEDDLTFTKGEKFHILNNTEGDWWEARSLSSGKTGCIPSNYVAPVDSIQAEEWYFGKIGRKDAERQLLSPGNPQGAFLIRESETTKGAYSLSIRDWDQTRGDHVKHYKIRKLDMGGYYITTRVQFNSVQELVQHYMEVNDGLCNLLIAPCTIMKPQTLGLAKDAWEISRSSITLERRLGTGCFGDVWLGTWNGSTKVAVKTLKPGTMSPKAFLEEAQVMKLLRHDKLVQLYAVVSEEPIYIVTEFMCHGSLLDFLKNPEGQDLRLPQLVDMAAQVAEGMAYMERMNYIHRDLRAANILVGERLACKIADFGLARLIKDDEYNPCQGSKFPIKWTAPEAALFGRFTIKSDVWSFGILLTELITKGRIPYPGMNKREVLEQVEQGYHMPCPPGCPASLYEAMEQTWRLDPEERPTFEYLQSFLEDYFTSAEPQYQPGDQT", "assay": "Reaction Biology HotSpot kinase assay", "format": "biochemical", "conditions": "500 nM compound; read-out: Percentage kinase inhibition FGR", "procedure,_shortened": "as §1"}, "TRKB": {"target": "TRKB (Homo sapiens (Human), UniProt Q16620)", "assay": "Reaction Biology HotSpot kinase assay", "format": "biochemical", "conditions": "500 nM compound; read-out: Percentage kinase inhibition TRKB", "procedure,_shortened": "as §1"}, "EPHA5": {"target": "EPHA5 (Homo sapiens (Human), UniProt P54756)", "assay": "Reaction Biology HotSpot kinase assay", "format": "biochemical", "conditions": "500 nM compound; read-out: Percentage kinase inhibition EPHA5", "procedure,_shortened": "as §1"}, "EPHB2": {"target": "EPHB2 (Homo sapiens (Human), UniProt P29323)", "assay": "Reaction Biology HotSpot kinase assay", "format": "biochemical", "conditions": "500 nM compound; read-out: Percentage kinase inhibition EPHB2", "procedure,_shortened": "as §1"}, "BRAF": {"target": "BRAF (Homo sapiens (Human), UniProt P15056)", "assay": "Reaction Biology HotSpot kinase assay", "format": "biochemical", "conditions": "500 nM compound; read-out: Percentage kinase inhibition BRAF", "procedure,_shortened": "(§3)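 Compounds were screened at one concentration, 500 nM, in a radiometric kinase reaction. After a 20-minute preincubation with enzyme and substrate in pH 7.5 HEPES buffer (1% DMSO), the mixture received 100 μM ATP containing [γ-33P]ATP and was left 2 h at room temperature.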"}, "TIE2/TEK": {"target": "TIE2/TEK (Homo sapiens (Human), UniProt Q02763)", "assay": "Reaction Biology HotSpot kinase assay", "format": "biochemical", "conditions": "500 nM compound; read-out: Percentage kinase inhibition TIE2/TEK", "procedure,_shortened": "as §1"}, "AXL": {"target": "AXL (Homo sapiens (Human), UniProt P30530)", "assay": "Reaction Biology HotSpot kinase assay", "format": "biochemical", "conditions": "500 nM compound; read-out: Percentage kinase inhibition AXL", "procedure,_shortened": "as §3"}, "KDR/VEGFR2": {"target": "KDR/VEGFR2 (Homo sapiens (Human), UniProt P35968)", "assay": "Reaction Biology HotSpot kinase assay", "format": "biochemical", "conditions": "500 nM compound; read-out: Percentage kinase inhibition KDR/VEGFR2", "procedure,_shortened": "as §1"}, "c-MER": {"target": "c-MER (Homo sapiens (Human), UniProt Q12866)", "assay": "Reaction Biology HotSpot kinase assay", "format": "biochemical", "conditions": "500 nM compound; read-out: Percentage kinase inhibition c-MER", "procedure,_shortened": "as §1"}, "ROS/ROS1": {"target": "ROS/ROS1 (Homo sapiens (Human), UniProt P08922)", "sequence (P08922 28-2347)": "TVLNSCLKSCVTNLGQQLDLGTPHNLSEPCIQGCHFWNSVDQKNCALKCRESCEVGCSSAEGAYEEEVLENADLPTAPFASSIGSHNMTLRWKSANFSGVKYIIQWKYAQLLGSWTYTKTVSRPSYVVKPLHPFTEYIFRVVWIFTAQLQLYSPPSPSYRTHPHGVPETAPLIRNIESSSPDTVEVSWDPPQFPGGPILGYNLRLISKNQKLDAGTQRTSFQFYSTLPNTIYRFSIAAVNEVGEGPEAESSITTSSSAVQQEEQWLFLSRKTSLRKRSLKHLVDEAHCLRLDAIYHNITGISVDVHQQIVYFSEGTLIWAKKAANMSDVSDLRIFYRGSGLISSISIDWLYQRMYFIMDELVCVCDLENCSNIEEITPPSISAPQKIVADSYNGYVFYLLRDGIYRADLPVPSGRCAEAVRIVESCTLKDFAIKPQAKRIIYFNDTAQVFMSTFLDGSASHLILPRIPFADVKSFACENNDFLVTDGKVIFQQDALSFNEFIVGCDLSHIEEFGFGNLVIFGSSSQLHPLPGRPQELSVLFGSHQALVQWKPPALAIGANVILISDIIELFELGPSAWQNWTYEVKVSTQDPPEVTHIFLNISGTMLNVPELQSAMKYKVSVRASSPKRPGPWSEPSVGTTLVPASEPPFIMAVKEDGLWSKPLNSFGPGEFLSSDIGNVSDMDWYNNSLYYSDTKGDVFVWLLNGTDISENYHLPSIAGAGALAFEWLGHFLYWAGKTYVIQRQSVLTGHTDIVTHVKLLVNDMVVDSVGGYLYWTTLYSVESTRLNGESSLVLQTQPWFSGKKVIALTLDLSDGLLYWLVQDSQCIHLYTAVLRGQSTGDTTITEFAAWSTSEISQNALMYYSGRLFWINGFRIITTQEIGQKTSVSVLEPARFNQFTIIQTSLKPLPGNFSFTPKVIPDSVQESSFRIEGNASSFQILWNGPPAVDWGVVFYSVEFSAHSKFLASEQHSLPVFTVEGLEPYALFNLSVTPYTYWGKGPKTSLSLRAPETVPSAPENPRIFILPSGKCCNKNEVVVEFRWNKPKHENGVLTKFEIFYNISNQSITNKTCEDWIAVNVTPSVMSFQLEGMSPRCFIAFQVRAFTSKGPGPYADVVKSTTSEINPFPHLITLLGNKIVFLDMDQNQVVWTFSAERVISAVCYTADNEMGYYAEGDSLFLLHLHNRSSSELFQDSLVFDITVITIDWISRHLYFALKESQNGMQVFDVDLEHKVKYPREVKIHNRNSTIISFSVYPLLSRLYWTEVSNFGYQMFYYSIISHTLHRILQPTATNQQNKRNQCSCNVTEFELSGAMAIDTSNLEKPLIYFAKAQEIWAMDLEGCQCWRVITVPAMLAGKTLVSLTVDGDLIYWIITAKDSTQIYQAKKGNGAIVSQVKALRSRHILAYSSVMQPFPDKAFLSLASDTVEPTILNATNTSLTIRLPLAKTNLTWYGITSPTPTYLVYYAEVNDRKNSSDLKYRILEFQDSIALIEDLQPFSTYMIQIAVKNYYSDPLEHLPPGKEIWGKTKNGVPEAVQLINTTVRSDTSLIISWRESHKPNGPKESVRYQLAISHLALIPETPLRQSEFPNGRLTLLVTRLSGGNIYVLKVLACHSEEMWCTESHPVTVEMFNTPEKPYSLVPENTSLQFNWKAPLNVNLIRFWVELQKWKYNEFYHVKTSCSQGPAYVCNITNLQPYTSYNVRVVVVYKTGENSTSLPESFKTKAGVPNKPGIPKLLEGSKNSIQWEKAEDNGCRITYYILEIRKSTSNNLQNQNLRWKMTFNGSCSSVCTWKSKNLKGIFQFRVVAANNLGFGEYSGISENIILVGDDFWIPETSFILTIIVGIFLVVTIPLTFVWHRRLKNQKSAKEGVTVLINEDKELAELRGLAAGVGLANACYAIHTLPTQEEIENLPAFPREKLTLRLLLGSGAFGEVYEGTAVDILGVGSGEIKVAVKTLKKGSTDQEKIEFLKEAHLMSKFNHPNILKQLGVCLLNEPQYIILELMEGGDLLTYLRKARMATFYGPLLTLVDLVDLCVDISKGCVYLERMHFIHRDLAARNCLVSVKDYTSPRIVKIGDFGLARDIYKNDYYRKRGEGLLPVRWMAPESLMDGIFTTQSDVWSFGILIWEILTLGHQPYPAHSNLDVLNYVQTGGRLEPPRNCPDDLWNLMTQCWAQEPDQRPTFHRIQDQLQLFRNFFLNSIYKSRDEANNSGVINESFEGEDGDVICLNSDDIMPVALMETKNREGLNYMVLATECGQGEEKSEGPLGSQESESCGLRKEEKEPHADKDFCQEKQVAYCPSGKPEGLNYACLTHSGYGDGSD", "assay": "Reaction Biology HotSpot kinase assay", "format": "biochemical", "conditions": "500 nM compound; read-out: Percentage kinase inhibition ROS/ROS1", "procedure,_shortened": "as §1"}},
  "note": "Like-named read-outs stand apart in the source and are kept apart here.",
  "data": [
    {"smiles": "Cc1ccc(C(=O)Nc2ccc(CN3CCN(C)CC3)c(C(F)(F)F)c2)cc1C#Cc1cnc(N)c2ncccc12", "note": "[HSN356, 3-((8-amino-1,7-naphthyridin-5-yl)ethynyl)-4-methyl-N-(4-((4-methylpiperazin-1-yl)methyl)-3-(trifluoromethyl)phenyl)benzamide]", "values": [
      {"measurement": "IC50", "setting": "K562; K562, 72 h, read-out: IC50 (proliferation inhibition) Cell line - K562", "result": 2, "unit": "nM"},
      {"measurement": "IC50", "setting": "K562; K562, Table 18, read-out: Inhibition of proliferation of K562 cell lines (CML)", "result": "1.8 ± 0.03", "unit": "nM"},
      {"measurement": "IC50", "setting": "MV4-11", "result": 0.4, "unit": "nM"},
      {"measurement": "inhibition at 0.5 µM", "setting": "ALK", "result": 0, "unit": "%"},
      {"measurement": "inhibition at 0.5 µM", "setting": "PKCa", "result": 0, "unit": "%"},
      {"measurement": "inhibition at 0.5 µM", "setting": "YES/YES1", "result": 100, "unit": "%"},
      {"measurement": "inhibition at 0.5 µM", "setting": "FLT4/VEGFR3", "result": 94, "unit": "%"},
      {"measurement": "inhibition at 0.5 µM", "setting": "FLT1/VEGFR1", "result": 94, "unit": "%"},
      {"measurement": "inhibition at 0.5 µM", "setting": "BTK", "result": 65, "unit": "%"},
      {"measurement": "inhibition at 0.5 µM", "setting": "PDGFRa", "result": 92, "unit": "%"},
      {"measurement": "inhibition at 0.5 µM", "setting": "ERBB2/HER2", "result": 64, "unit": "%"},
      {"measurement": "inhibition at 0.5 µM", "setting": "FGFR1", "result": 96, "unit": "%"},
      {"measurement": "inhibition at 0.5 µM", "setting": "EGFR", "result": 59, "unit": "%"},
      {"measurement": "inhibition at 0.5 µM", "setting": "AKT1", "result": 0, "unit": "%"},
      {"measurement": "inhibition at 0.5 µM", "setting": "c-Met", "result": 15, "unit": "%"},
      {"measurement": "% inhibition of FLT3 activity", "setting": "FLT3", "result": 99, "unit": "%"},
      {"measurement": "inhibition at 0.5 µM", "setting": "FLT3; read-out: % inhibition of FLT3 activity", "result": 98, "unit": "%"},
      {"measurement": "inhibition at 0.5 µM", "setting": "FGR", "result": 99, "unit": "%"},
      {"measurement": "inhibition at 0.5 µM", "setting": "TRKB", "result": 75, "unit": "%"},
      {"measurement": "inhibition at 0.5 µM", "setting": "EPHA5", "result": 96, "unit": "%"},
      {"measurement": "inhibition at 0.5 µM", "setting": "EPHB2", "result": 100, "unit": "%"},
      {"measurement": "inhibition at 0.5 µM", "setting": "BRAF", "result": 100, "unit": "%"},
      {"measurement": "inhibition at 0.5 µM", "setting": "TIE2/TEK", "result": 100, "unit": "%"},
      {"measurement": "inhibition at 0.5 µM", "setting": "AXL", "result": 4, "unit": "%"},
      {"measurement": "inhibition at 0.5 µM", "setting": "KDR/VEGFR2", "result": 97, "unit": "%"},
      {"measurement": "inhibition at 0.5 µM", "setting": "c-MER", "result": 0, "unit": "%"},
      {"measurement": "inhibition at 0.5 µM", "setting": "ROS/ROS1", "result": 0, "unit": "%"}
    ]}
  ]
}
